Test system: plated pancreatic progenitors
Assay: Latrunculin A at different stages of SC-β cell differentiation of plated pancreatic progenitors (flow cytometry, GSIS, insulin content, qRT-PCR)
Type: cell-based, human
Source text: For experiments investigating the effects of plating pancreatic progenitors, cells were differentiated with the suspension protocol for stages 1-3. At the end of stage 3, clusters were single cell dispersed with TrypLE and plated onto tissue culture plates coated with various ECM proteins at 0.625×10^6 cells/cm^2. Differentiation media for the remainder of this hybrid protocol were the same as for the suspension protocol with the exception that Y-27632 and Activin A were omitted on days 2-5 of stage 4. […] A variety of ECM coatings were initially tested with this plating methodology, including collagen I (Corning, 354249), collagen IV (Corning, 354245), fibronectin (Gibco, 33016-015), vitronectin (Gibco, A14700), matrigel (Corning, 356230), gelatin (Fisher, G7-500), and laminins 111, 121, 211, 221, 411, 421, 511, and 521 (Biolamina, LNKT-0201). All subsequent experiments with this hybrid protocol were performed on collagen I.
RNA was extracted from either whole clusters or cells directly on the plate with the RNeasy Mini Kit (Qiagen, 74016). Samples were treated with a DNAse kit (Qiagen, 79254) during extraction. The High Capacity cDNA Reverse Transcriptase Kit (Applied Biosystems, 4368814) was used to synthesize cDNA on a thermocycler (Applied Biosystems, A37028). The PowerUp SYBR Green Master Mix (Applied Biosystems, A25741) was used on a StepOnePlus (Applied Biosystems), and real time PCR results were analyzed using a ΔΔCt methodology. TBP and GUSB were both used as housekeeping genes. Primer sequences were as follows.
Cells were single-cell dispersed with TrypLE and fixed with 4% PFA for 30 minutes. Cells were then washed with PBS and incubated with ICC solution for 45 minutes at room temperature, incubated with primary antibodies overnight at 4° C., and incubated with secondary antibodies for 2 hours at room temperature. Cells were then washed twice with ICC solution and filtered before running on the LSRII flow cytometer (BD Biosciences). Analysis was completed with FlowJo.
Static GSIS: To assess the function of cells produced by the hybrid protocol, static GSIS was performed with cells still attached to 96 or 24-well tissue culture plates. To assess function of clusters generated with the planar protocol, approximately 30 clusters were collected and placed in tissue culture transwell inserts (MilliporeSigma, PIXP01250) in a 24-well plate. […] Cells were first incubated in a 2 mM glucose KRB solution at 37° C. for one hour, after which this solution was discarded and replaced with fresh 2 mM glucose KRB. After an additional hour, the supernatant was collected. 20 mM glucose KRB was added for the next hour, after which the supernatant was again collected. Cells were washed with fresh KRB during each solution change. Cells were then single-cell dispersed with TrypLE and counted with the Vi-Cell XR (Beckman Coulter). Supernatants from the low and high glucose challenges were quantified with a human insulin ELISA (ALPCO, 80-INSHU-E10.1), and cell counts were used to normalize insulin secretion.
Whole SC-β cell clusters or cells attached to culture plates were washed twice thoroughly with PBS. Half of the clusters or an equivalent well of plated cells were immersed in TrypLE for cell counts on the Vi-Cell XR. For the other half of the samples, a solution of 1.5% HCl and 70% ethanol was added to either the clusters in eppendorf tubes or directly onto plated cells. After 15 minutes, the plated cells were pipetted vigorously and transferred to eppendorf tubes. The eppendorf tubes from both clusters and plated cells were kept at −20° C. for 72 hours, vortexing vigorously every 24 hours. Samples were then centrifuged at 2100 RCF for 15 minutes. […] Proinsulin and insulin secretion were normalized to the viable cell counts.

[1] = 24 hour 1 μM treatment, stage 5

C/C1=C/C(=O)O[C@@H]2C[C@@H](CC[C@H](C)/C=C\C=C\CC1)O[C@@](O)([C@@H]1CSC(=O)N1)C2 [latrunculin A]
endocrine induction, SC-β cell specification and GSIS (0.5 μM added during stage 5): greatest increase in endocrine induction, SC-β cell specification, and glucose-stimulated insulin secretion (GSIS) | endocrine induction and β-cell specification (0.5 μM throughout either stage 4 or stage 6): increased both general endocrine induction (CHGA+) and β-cell specification (NKX6-1+/c-peptide+) | GSIS, optimization of duration and concentration during stage 5 (1 μM during the first 24 hours of stage 5): most benefit at the shortest and lowest dose | expression of endocrine genes [1]: increased expression of endocrine genes | expression of markers associated with other endodermal lineages [1]: reduced | pro-insulin/insulin ratio [1]: improved pro-insulin/insulin ratio | total insulin content [1]: increased total insulin content

From patent US20210207099A1, “METHODS AND COMPOSITIONS FOR GENERATING CELLS OF ENDODERMAL LINEAGE AND BETA CELLS AND USES THEREOF” (priority 2018, published 2021)
